Like-named read-outs stand apart in the source and are kept apart here. *1 amine or outer side, *2 acyl side, *3 side chain or, on linkers, in order; H or OH if unused. Where a SMILES comes first, the peptide text is derived from it. Side-chain parts run from the residue outwards. The star is where a group is joined. C18 diacid = O=C(O)CCCCCCCCCCCCCCCCC(=O)*; γGlu = O=C(O)[C@H](CCC(=O)[*:2])N[*:1]; AEEA = NCCOCCOCC(=O)O
T1: human SNP-tagged GLP-2R (Homo sapiens, UniProt O95838)
T1 construct: expressed in transfected cells; host or cells: HEK293A
T1 sequence (O95838 1-553): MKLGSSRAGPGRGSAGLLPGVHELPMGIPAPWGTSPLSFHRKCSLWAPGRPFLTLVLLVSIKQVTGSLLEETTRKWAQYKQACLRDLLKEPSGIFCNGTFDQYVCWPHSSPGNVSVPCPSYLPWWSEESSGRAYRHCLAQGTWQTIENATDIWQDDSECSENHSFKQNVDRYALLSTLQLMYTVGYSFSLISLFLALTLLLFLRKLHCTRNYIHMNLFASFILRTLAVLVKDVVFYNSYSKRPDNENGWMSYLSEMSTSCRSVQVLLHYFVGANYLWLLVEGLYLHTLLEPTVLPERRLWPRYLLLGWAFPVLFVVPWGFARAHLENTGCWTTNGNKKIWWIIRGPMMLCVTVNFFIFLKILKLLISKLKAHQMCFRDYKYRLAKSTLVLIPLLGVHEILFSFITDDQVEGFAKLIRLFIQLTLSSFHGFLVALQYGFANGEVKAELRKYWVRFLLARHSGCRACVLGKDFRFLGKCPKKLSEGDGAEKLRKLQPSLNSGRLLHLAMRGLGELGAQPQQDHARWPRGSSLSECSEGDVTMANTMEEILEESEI

T2: human GIPR (Homo sapiens, UniProt P48546)
T2 construct: host or cells: COS-7
T2 sequence (P48546 22-466): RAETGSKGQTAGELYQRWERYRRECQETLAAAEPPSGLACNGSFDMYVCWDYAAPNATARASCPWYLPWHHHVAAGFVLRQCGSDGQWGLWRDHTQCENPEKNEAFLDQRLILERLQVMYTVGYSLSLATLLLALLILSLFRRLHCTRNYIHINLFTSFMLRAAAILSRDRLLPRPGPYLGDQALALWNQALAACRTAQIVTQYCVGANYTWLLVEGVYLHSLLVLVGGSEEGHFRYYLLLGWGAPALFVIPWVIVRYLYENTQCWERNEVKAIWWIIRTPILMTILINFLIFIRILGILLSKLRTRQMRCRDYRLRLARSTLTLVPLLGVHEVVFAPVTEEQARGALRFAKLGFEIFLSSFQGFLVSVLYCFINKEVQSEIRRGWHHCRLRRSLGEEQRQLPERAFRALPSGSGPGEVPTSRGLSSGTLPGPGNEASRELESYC

T3: human GLP-2R (Homo sapiens, UniProt O95838)
T3 construct: host or cells: COS-7
T3 sequence (O95838 1-553): T1 sequence (O95838 1-553)

T4: human SNAP-tagged GIPR (Homo sapiens, UniProt P48546)
T4 construct: host or cells: HEK293A
T4 sequence (P48546 22-466): T2 sequence (P48546 22-466)

T5: human SNAP-tagged GLP-2R (human, UniProt O95838 1-553, SNAP tag labeled with Tag-Lite SNAP-Lumi4-Tb)
T5 sequence (looked up): T1 sequence (O95838 1-553)

B1: hGLP-2 (ligand)
peptide: HADGSFSDEMNTILDNLAARDFINWLIQTKITD

Columns and labels:
[1] = molecular target: human glucagon receptor (GCGR) (Homo sapiens, UniProt P47871); test: Gs activation measured as cAMP accumulation on human glucagon receptor (FIG. 1 radar plot); format: cell-based; conditions: read-out: −p Log EC50 on human glucagon receptor (GCGR) (converted)
From the text: Here, the compounds 20, 21, 22, 28, 30, 31,32, 33, 34, 35 are shown in terms of their potencies in Gs activation, measured as CAMP accumulation, depicted in a radar plot. The numbers refer to −p Log EC50 values. […] The outer rings correspond to higher potencies, the inner rings correspond to lower potencies.

human SNP-tagged GLP-2R = molecular target: T1, human SNP-tagged GLP-2R; test: Receptor internalization assay, HEK293A cells expressing human SNAP-tagged GLP-2R; format: cell-based; conditions: for Absolute hGLP-2R internalization (AUC): AUC of sigmoid curves up to 1 μM, 60 minutes at 37° C.
human GIPR = molecular target: T2, human GIPR; test: cAMP assay (HitHunter) in transiently transfected COS-7 cells expressing human GIPR; format: cell-based
human SNAP-tagged GLP-1R = molecular target: T6, human SNAP-tagged GLP-1R (Homo sapiens, UniProt P43220); test: Receptor internalization assay, HEK293A cells expressing human SNAP-tagged GLP-1R; format: cell-based; conditions: for Absolute hGLP-1R internalization (AUC): AUC of sigmoid curves up to 1 μM, 60 minutes at 37° C.
T6 construct: expressed in transfected cells; host or cells: HEK293A

human GLP-2R = molecular target: T3, human GLP-2R; test: cAMP assay (HitHunter) in transiently transfected COS-7 cells expressing human GLP-2R; format: cell-based
human GLP-1R = molecular target: T7, human GLP-1R (Homo sapiens, UniProt P43220); test: cAMP assay (HitHunter) in transiently transfected COS-7 cells expressing human GLP-1R; format: cell-based
T7 construct: host or cells: COS-7

human SNAP-tagged GIPR = molecular target: T4, human SNAP-tagged GIPR; test: Receptor internalization assay, HEK293A cells expressing human SNAP-tagged GIPR; format: cell-based
human SNAP-tagged GLP-2R = molecular target: T5, human SNAP-tagged GLP-2R; test: cell-based or functional assay

T6 sequence (P43220 24-463): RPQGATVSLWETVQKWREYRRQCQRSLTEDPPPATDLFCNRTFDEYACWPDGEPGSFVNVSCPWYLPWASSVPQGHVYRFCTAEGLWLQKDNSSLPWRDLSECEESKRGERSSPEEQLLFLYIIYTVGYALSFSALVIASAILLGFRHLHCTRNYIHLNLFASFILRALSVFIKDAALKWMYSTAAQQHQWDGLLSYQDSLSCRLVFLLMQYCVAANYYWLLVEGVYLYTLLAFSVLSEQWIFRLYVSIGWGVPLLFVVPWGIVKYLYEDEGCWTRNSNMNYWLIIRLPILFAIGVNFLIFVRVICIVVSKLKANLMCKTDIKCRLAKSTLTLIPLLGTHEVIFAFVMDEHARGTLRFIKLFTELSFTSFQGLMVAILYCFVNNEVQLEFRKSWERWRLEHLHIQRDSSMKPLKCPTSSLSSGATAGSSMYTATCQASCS
T7 sequence (P43220 24-463): as above
human glucagon receptor (GCGR), sequence (P47871 26-477): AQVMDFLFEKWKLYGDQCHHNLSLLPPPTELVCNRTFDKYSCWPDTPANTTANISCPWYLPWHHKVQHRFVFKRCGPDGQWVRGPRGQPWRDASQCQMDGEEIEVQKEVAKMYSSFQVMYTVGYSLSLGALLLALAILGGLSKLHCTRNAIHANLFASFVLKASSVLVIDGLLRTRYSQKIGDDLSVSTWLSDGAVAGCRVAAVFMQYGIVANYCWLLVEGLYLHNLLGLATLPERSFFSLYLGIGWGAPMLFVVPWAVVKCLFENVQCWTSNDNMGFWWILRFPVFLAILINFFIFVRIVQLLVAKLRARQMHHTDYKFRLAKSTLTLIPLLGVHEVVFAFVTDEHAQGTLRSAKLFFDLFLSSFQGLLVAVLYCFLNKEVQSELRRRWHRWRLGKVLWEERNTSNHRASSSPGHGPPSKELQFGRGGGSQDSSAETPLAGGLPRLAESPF

Molecule	EC50 [1]	Absolute hGLP-2R internalization (AUC) (human SNP-tagged GLP-2R)	Relative hGLP-2R internalization (%) (human SNP-tagged GLP-2R; relative to native ligand = 100)	Emax (human GIPR; COS-7, read-out: Efficacy GIPR (Emax))	Absolute hGLP-1R internalization (AUC) (human SNAP-tagged GLP-1R)	Relative hGLP-1R internalization (%) (human SNAP-tagged GLP-1R; relative to hGLP-1 = 100)	Emax (human GLP-2R; COS-7, read-out: Efficacy GLP-2R (Emax))	Emax (human GLP-1R; COS-7, read-out: Efficacy GLP-1R (Emax))	Absolute hGIPR internalization (AUC) (human SNAP-tagged GIPR)	Relative hGIPR internalization (%) (human SNAP-tagged GIPR)	Emax (human GIPR; COS-7, normalized to highest concentration of the endogenous ligand, read-out: Efficacy GIPR (Emax))	Emax (human GLP-2R; COS-7, normalized to highest concentration of the endogenous ligand, read-out: Efficacy GLP-2R (Emax))	Emax (human GLP-1R; COS-7, normalized to highest concentration of the endogenous ligand, read-out: Efficacy GLP-1R (Emax))	Absolute hGIPR internalization (AUC) (human SNAP-tagged GIPR; AUC of sigmoid curves up to 1 μM, 60 minutes at 37° C.)	Absolute hGLP-2R internalization (AUC) (human SNAP-tagged GLP-2R)
CC[C@H](C)[C@H](NC(=O)[C@H](Cc1ccccc1)NC(=O)[C@H](CC(=O)O)NC(=O)[C@H](CCCNC(=N)N)NC(=O)[C@H](C)NC(=O)[C@H](C)NC(=O)[C@H](CC(C)C)NC(=O)[C@H](CCCCNC(=O)COCCOCCNC(=O)COCCOCCNC(=O)CC[C@H](NC(=O)CCCCCCCCCCCCCCCCC(=O)O)C(=O)O)NC(=O)[C@H](CC(=O)O)NC(=O)[C@H](CC(C)C)NC(=O)C(C)(C)NC(=O)[C@@H](NC(=O)[C@H](CO)NC(=O)[C@H](Cc1ccc(O)cc1)NC(=O)[C@H](CC(=O)O)NC(=O)[C@H](CO)NC(=O)[C@@H](NC(=O)[C@H](Cc1ccccc1)NC(=O)[C@@H](NC(=O)CNC(=O)[C@H](CC(=O)O)NC(=O)[C@H](C)NC(=O)[C@@H](N)Cc1c[nH]cn1)[C@@H](C)O)[C@@H](C)CC)[C@@H](C)O)C(=O)N[C@@H](CC(N)=O)C(=O)N[C@@H](Cc1c[nH]c2ccccc12)C(=O)N[C@@H](CC(C)C)C(=O)N[C@H](C(=O)N[C@@H](CCC(N)=O)C(=O)N[C@H](C(=O)N[C@@H](CCCCN)C(=O)NCC(=O)N[C@@H](CCCCN)C(=O)N[C@@H](CCCCN)C(=O)O)[C@@H](C)O)[C@@H](C)CC [Compound 31]	> 0.1 µM	30.6	63.0%	85%	4.9	5.8%	79%	89%	16.0	43%					
CC[C@H](C)[C@H](NC(=O)[C@H](Cc1ccccc1)NC(=O)[C@H](CC(=O)O)NC(=O)[C@H](CCCNC(=N)N)NC(=O)[C@H](C)NC(=O)[C@H](C)NC(=O)[C@H](CC(C)C)NC(=O)[C@H](CC(N)=O)NC(=O)[C@H](CC(=O)O)NC(=O)[C@H](CC(C)C)NC(=O)[C@@H](NC(=O)[C@@H](NC(=O)[C@H](CO)NC(=O)[C@H](Cc1ccc(O)cc1)NC(=O)[C@H](CC(=O)O)NC(=O)[C@H](CO)NC(=O)[C@@H](NC(=O)[C@H](Cc1ccccc1)NC(=O)[C@@H](NC(=O)CNC(=O)[C@H](CC(=O)O)NC(=O)[C@H](C)NC(=O)[C@@H](N)Cc1c[nH]cn1)[C@@H](C)O)[C@@H](C)CC)[C@@H](C)O)[C@@H](C)CC)C(=O)N[C@@H](CC(N)=O)C(=O)N[C@@H](Cc1c[nH]c2ccccc12)C(=O)N[C@@H](CC(C)C)C(=O)N[C@H](C(=O)N[C@@H](CCC(N)=O)C(=O)N[C@H](C(=O)N[C@@H](CCCCN)C(=O)NCC(=O)N[C@@H](CCCCN)C(=O)N[C@@H](CCCCN)C(=O)N[C@@H](CCCCNC(=O)COCCOCCNC(=O)COCCOCCNC(=O)CC[C@H](NC(=O)CCCCCCCCCCCCCCCCC(=O)O)C(=O)O)C(=O)O)[C@@H](C)O)[C@@H](C)CC [Compound 34] (H-HADGTFISDYSTILDNLAARDFINWLIQTKGKKK([AEEA-AEEA-γGlu-C18 diacid])-OH; N-terminus assumed)		8.0			6.0						103%	91%	97%	14.7	
B1															48.6 AUC
